Several values for one entry are separate records, joined by “and”; a condition that tells them apart may be missing. Equal entries are not always repeated.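 The compound was tested at five concentrations on cells cultured in 96-well plates, with a 48-hour exposure period. GI50: concentration for 50% inhibition of growth. TGI denotes the concentration required for complete inhibition of growth.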
Experiments:
Test in all cases: NCI tumour cell line growth inhibition, 48 h
[1] = tested on: SN12C renal
[2] = tested on: MOLT-4 leukemia
[3] = tested on: OVCAR-3 ovarian
[4] = tested on: K-562 leukemia
[5] = tested on: OVCAR-8 ovarian
[6] = tested on: HCT-116 colon
[7] = tested on: SF-539 CNS
[8] = tested on: TK-10 renal
[9] = tested on: SK-MEL-2 melanoma

## COC(=O)/C(=N\NC(N)=S)C(C(=O)OC)C(=O)C(=O)Nc1ccc(C)cc1 (stereo unspecified)
[1]
  TGI: > 100 µM
[2]
  TGI: > 100 µM
[3]
  TGI: > 100 µM
[4]
  TGI: > 100 µM
[5]
  TGI: > 100 µM
[6]
  TGI: > 100 µM
[7]
  TGI: > 100 µM
[8]
  TGI: > 100 µM
[9]
  TGI: > 100 µM

## Cc1cc2c(=O)c3ccccc3[nH]c2c(C(N)=O)c1C
[1]
  TGI: > 100 µM
[2]
  TGI: > 100 µM
[3]
  TGI: > 100 µM
[4]
  TGI: > 100 µM
[5]
  TGI: > 100 µM
[6]
  TGI: > 100 µM
[7]
  TGI: > 100 µM
[8]
  TGI: > 100 µM
[9]
  TGI: > 100 µM

## Cc1ccccc1C(=O)c1cc(O)ccc1O
[1]
  TGI: > 100 µM
[2]
  TGI: > 100 µM
[3]
  TGI: > 100 µM
[4]
  TGI: > 100 µM
[5]
  TGI: > 100 µM
[6]
  TGI: > 100 µM
[7]
  TGI: > 100 µM
[8]
  TGI: > 100 µM
[9]
  TGI: > 100 µM

## CN(C)CCC(/C=C/c1ccccc1)=N\Nc1ccccc1
[1]
  TGI: 11.6 µM
[2]
  TGI: 15 µM
[3]
  TGI: 6.5 µM
[4]
  TGI: 10.5 µM
[5]
  TGI: 23.9 µM
[6]
  TGI: 10.8 µM
[7]
  TGI: 4.02 µM
[8]
  TGI: 4.61 µM

## COCC(OC)C(CC=C(C#N)C#N)OC (stereo unspecified)
[1]
  TGI: > 100 µM
[2]
  TGI: > 100 µM
[3]
  TGI: > 100 µM
[4]
  TGI: > 100 µM
[5]
  TGI: > 100 µM
[6]
  TGI: > 100 µM
[7]
  TGI: > 100 µM
[8]
  TGI: > 100 µM
[9]
  TGI: > 100 µM

## COc1ccc2c(c1OCC(=O)O)C(=O)C(CCC(=O)O)CC2 (stereo unspecified)
[1]
  TGI: > 100 µM
[2]
  TGI: > 100 µM
[3]
  TGI: > 100 µM
[5]
  TGI: > 100 µM
[6]
  TGI: > 100 µM
[7]
  TGI: > 100 µM

## COC(=O)/C(C#N)=C1\N=NNN1c1ccc(OC)cc1
[1]
  TGI: > 100 µM
[2]
  TGI: > 100 µM
[3]
  TGI: > 100 µM
[4]
  TGI: > 100 µM
[5]
  TGI: > 100 µM
[6]
  TGI: > 100 µM
[7]
  TGI: > 100 µM
[8]
  TGI: > 100 µM

## CCCCCCCCCCCCCCCC(=O)OCCOCCOCCOCc1ccccc1
[1]
  TGI: > 100 µM
[3]
  TGI: > 100 µM
[5]
  TGI: > 100 µM
[6]
  TGI: > 100 µM
[7]
  TGI: > 100 µM
[8]
  TGI: > 100 µM
[9]
  TGI: > 100 µM

## O=C1CCC2(c3ccc(Cl)cc3)Nc3cc(Cl)ccc3N12 (stereo unspecified)
[1]
  TGI: 28.6 µM
[3]
  TGI: 22.4 µM
[4]
  TGI: 14.1 µM
[5]
  TGI: 20.6 µM
[6]
  TGI: 19.5 µM
[7]
  TGI: 7.32 µM
[9]
  TGI: 23.8 µM

## COC1C(OC(=S)Nc2ccccc2)c2ccccc2N1C(C)=O (stereo unspecified)
[1]
  TGI: > 100 µM
[2]
  TGI: > 100 µM
[3]
  TGI: > 100 µM
[4]
  TGI: > 100 µM
[5]
  TGI: > 100 µM
[6]
  TGI: > 100 µM
[7]
  TGI: > 100 µM
[9]
  TGI: > 100 µM

## COC(=O)/C(=C/c1ccc(OC)cc1)C(C(=O)O)=C1CCCC1
[1]
  TGI: > 100 µM
[2]
  TGI: > 100 µM
[4]
  TGI: > 100 µM
[5]
  TGI: > 100 µM
[6]
  TGI: > 100 µM
[7]
  TGI: > 100 µM
[8]
  TGI: > 100 µM
[9]
  TGI: > 100 µM

## O=C(Nc1cccc(Cl)c1)C(=O)C(C(=O)c1ccc2ccccc2c1)C1OC(=O)c2ccccc21 (stereo unspecified)
[1]
  TGI: 51 µM
[2]
  TGI: 23.6 µM
[3]
  TGI: 56.6 µM
[4]
  TGI: 70.2 µM
[5]
  TGI: 68.9 µM
[6]
  TGI: 26.7 µM
[8]
  TGI: 77.4 µM
[9]
  TGI: 32.5 µM

## CCOC(=O)N1CCC(N[C@@H]2c3cc4c(cc3C(c3cc(OC)c(O)c(OC)c3)C3C(=O)OC[C@@H]32)OCO4)CC1 (stereo partly specified)
[1]
  GI50: 1.21 µM and 0.366 µM
  TGI: 2.93 µM and 1.34 µM
[3]
  TGI: 17.5 µM and 11.6 µM
[4]
  TGI: 22.4 µM and > 25 µM
[5]
  TGI: 11.6 µM and 10.3 µM
[6]
  TGI: 22.3 µM and 11 µM
[7]
  TGI: 5.78 µM and 4.71 µM
[8]
  GI50: 2.09 µM and 4.27 µM
  TGI: 11.9 µM and 9.5 µM
[9]
  TGI: 14.9 µM and 11.3 µM

## CN(C)C(=S)/N=c1\sn(C)/c(=N\C(=S)N(C)C)n1C
[1]
  TGI: > 100 µM
[2]
  TGI: > 100 µM
[3]
  TGI: > 100 µM
[4]
  TGI: > 100 µM
[5]
  TGI: > 100 µM
[6]
  TGI: > 100 µM
[7]
  TGI: > 100 µM
[8]
  TGI: > 100 µM

## c1ccc2c(OCCSCCCCCCCCCCSCCOc3cccc4ccccc34)cccc2c1
[1]
  TGI: > 100 µM
[2]
  TGI: > 100 µM
[3]
  TGI: > 100 µM
[4]
  TGI: > 100 µM
[5]
  TGI: > 100 µM
[7]
  TGI: > 100 µM
[8]
  TGI: > 100 µM
[9]
  TGI: > 100 µM

## CSc1nc(SC)c2c(C#N)[nH]nc2n1
[1]
  TGI: > 100 µM
[2]
  TGI: > 100 µM
[3]
  TGI: > 100 µM
[4]
  TGI: > 100 µM
[5]
  TGI: > 100 µM
[7]
  TGI: > 100 µM
[8]
  TGI: > 100 µM
[9]
  TGI: > 100 µM

## COc1cnc2c(c1)C(=O)c1c-2n(CCCNC2=NCCS2)c(=O)c2cc([N+](=O)[O-])ccc12
[3]
  GI50: 0.137 µM
  TGI: 1.81 µM
[7]
  GI50: 0.0359 µM
  TGI: 1.05 µM

## O=C(/C(=C/c1ccc(Cl)cc1)c1ccccc1)c1ccccc1
[1]
  TGI: 31.7 µM
[2]
  TGI: 47 µM
[4]
  TGI: > 100 µM
[5]
  TGI: 50.7 µM
[6]
  TGI: 27.1 µM
[7]
  TGI: 31.3 µM
[8]
  TGI: 56.8 µM
[9]
  TGI: 36.6 µM

## CC1(C)COC(c2cccc3c2C(=O)c2cccc(Cl)c2-3)=N1
[1]
  TGI: > 100 µM
[2]
  TGI: > 100 µM
[3]
  TGI: > 100 µM
[4]
  TGI: > 100 µM
[5]
  TGI: > 100 µM
[7]
  TGI: > 100 µM
[8]
  TGI: > 100 µM
[9]
  TGI: > 100 µM

## CCOC(=O)c1ccc(/C(C)=N/NC(N)=S)cc1
[1]
  TGI: > 100 µM
[2]
  TGI: > 100 µM
[3]
  TGI: > 100 µM
[4]
  TGI: > 100 µM
[5]
  TGI: > 100 µM
[6]
  TGI: > 100 µM
[7]
  TGI: > 100 µM
[8]
  TGI: > 100 µM

## CC(C)(C)c1cc(C(P(=O)(O)O)P(=O)(O)O)cc(C(C)(C)C)c1O
[2]
  TGI: > 100 µM
[3]
  TGI: > 100 µM
[4]
  TGI: > 100 µM
[5]
  TGI: > 100 µM
[6]
  TGI: > 100 µM
[7]
  TGI: > 100 µM
[8]
  TGI: > 100 µM
[9]
  TGI: > 100 µM

Source: PubChem BioAssay (NCI)
